According to patent US9403810B2, “Carboxamide derivatives” (Novartis AG, priority 2014, dated 2016):

Target: Smurf-1 (Homo sapiens (Human), UniProt Q9HCE7)
Test: HECT E3 ligase autoubiquitinylation TR-FRET assay (Smurf-1)
Assay type: biochemical
Conditions: 8-point dose-response curve, 3 nM to 10 uM; 45 min incubation
From the text: To determine the HECT E3 ligase selectivity of the compounds, a panel of biochemical HECT E3 ligase autoubiquitinylation assays was employed (Smurf-1, Smurf-2, WWP1, WWP2, ITCH, Nedd4, Nedd4L and E6AP). The conjugation of ubiquitin to a protein substrate is a multistep process. In an initial ATP-requiring step, a thioester bond is formed between the carboxyl terminus of ubiquitin and an internal cystein residue of the ubiquitin-activating enzyme (E1). Activated ubiquitin is then transferred to a specific cystein residue of an ubiquitin-conjugating enzyme (E2). E2s donate ubiquitin to a HECT E3 ligase (E3) from which it is transferred to the substrate protein. HECT E3 ligases can auto-ubiquitinylate. This event is detected in the TR-FRET (Time-Resolved Fluorescence Resonance Energy Transfer) assay used in this panel. The reaction mix contains E1, E2, tagged-E3, biotin-conjugated ubiquitin, the compound and ATP in a suitable buffer and is incubated for 45 minutes to allow auto-ubiquitinylation of the E3 ligase. To measure the extent of ubiquitinylated E3 ligase by TR-FRET, the donor fluorophore Europium cryptate (Eu3+ cryptate), conjugated to streptavidin which subsequently binds to biotinylated ubiquitin, and the modified allophycocyanin XL665 (HTRF® primary acceptor fluorophore) coupled to a tag-specific antibody (HA, His or GST), which recognizes the respective E3 ligase fusion proteins, are added after the reaction is complete. When these two fluorophores are brought together by a bimolecular interaction (in this case ubiquitinylation of the E3 ligase), a portion of the energy captured by the Cryptate during excitation is released through fluorescence emission at 620 nm, while the remaining energy is transferred to XL665. This energy is then released by XL665 as specific fluorescence at 665 nm. Light at 665 nm is emitted only through FRET with Europium.
Test and reference compounds are prepared at 180× [final] in 90% DMSO, and diluted 1:3 in 90% DMSO.
For the biochemical assay panel, 50 nl of the test compounds, reference compounds and buffer/DMSO control are transferred to the respective wells of a 384-well white GREINER “SMALL VOLUME” PS plate. The assay panel is run at room temperature on a Biomek FX liquid handling workstation. To the assay plates containing 50 nl compound or control solutions in 90% DMSO, 4.5 ul of E3 ligase solution were added per well, followed by 4.5 ul of the pre-incubated E1/E2/Ub mix or the pre-diluted ubiquitin (LOW control). Plates are shaken vigorously after each addition. In this assay the compound concentrations range from 3 nM to 10 uM in an 8-point dose-response curve.
After an incubation time of 45 min in the dark, the plates are transferred into the Pherastar fluorescence reader to measure the TR-FRET signal.

Chain of Smurf-1 (Q9HCE7 whole entry): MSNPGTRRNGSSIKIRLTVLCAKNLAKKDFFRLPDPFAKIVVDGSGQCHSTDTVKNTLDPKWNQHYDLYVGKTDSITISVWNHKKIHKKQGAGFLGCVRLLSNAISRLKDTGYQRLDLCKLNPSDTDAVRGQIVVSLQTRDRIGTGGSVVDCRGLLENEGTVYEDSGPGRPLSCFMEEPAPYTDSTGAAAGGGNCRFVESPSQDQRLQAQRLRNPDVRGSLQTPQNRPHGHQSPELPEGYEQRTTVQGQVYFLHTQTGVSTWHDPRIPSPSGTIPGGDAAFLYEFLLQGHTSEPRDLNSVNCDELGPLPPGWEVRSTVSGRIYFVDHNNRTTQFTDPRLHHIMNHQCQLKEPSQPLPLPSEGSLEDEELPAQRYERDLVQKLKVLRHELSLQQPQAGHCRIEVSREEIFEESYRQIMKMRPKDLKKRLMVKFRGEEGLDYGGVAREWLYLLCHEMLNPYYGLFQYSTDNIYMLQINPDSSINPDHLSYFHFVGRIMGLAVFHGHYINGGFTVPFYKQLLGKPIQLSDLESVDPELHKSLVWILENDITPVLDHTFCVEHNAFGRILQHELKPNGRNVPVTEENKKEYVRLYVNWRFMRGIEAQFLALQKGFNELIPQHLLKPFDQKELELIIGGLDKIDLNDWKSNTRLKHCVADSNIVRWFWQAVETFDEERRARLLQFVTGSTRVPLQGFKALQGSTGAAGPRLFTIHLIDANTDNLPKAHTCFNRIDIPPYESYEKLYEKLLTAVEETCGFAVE

Row | IC50 | SMILES
1 | 2500 nM | CO[C@@H]1C[C@@H](C(C)(C)C)O[C@@H](c2onc(C(=O)Nc3c(C)n(C)n(C4CCC4)c3=O)c2C)C1.CO[C@@H]1C[C@@H](c2onc(C(=O)Nc3c(C)n(C)n(C4CCC4)c3=O)c2C)O[C@@H](C(C)(C)C)C1 (mixture of isomers) [Example 14, 5-((2R,4R,6S)-6-(tert-butyl)-4-methoxytetrahydro-2H-pyran-2-yl)-N-(2-cyclobutyl-1,5-dimethyl-3-oxo-2,3-dihydro-1H-pyrazol-4-yl)-4-methylisoxazole-3-carboxamide and 5-((2S,4S,6R)-6-(tert-butyl)-4-methoxytetrahydro-2H-pyran-2-yl)-N-(2-cyclobutyl-1,5-dimethyl-3-oxo-2,3-dihydro-1H-pyrazol-4-yl)-4-methylisoxazole-3-carboxamide]
2 | 640 nM | CO[C@H]1C[C@@H](c2onc(C(=O)Nc3c(C)n(C)n(C4CCCCC4)c3=O)c2C)O[C@@H](C(C)(C)C)C1 (racemic) [Example 13, 5-((2S,4R,6R)-6-(tert-butyl)-4-methoxytetrahydro-2H-pyran-2-yl)-N-(2-cyclohexyl-1,5-dimethyl-3-oxo-2,3-dihydro-1H-pyrazol-4-yl)-4-methylisoxazole-3-carboxamide and 5-((2R,4S,6S)-6-(tert-butyl)-4-methoxytetrahydro-2H-pyran-2-yl)-N-(2-cyclohexyl-1,5-dimethyl-3-oxo-2,3-dihydro-1H-pyrazol-4-yl)-4-methylisoxazole-3-carboxamide]
3 | 1800 nM | Cc1c(C(=O)Nc2c(C)n(C)n(C3CCCCC3)c2=O)noc1[C@@H]1CC=C[C@H](C)O1 (racemic) [Example 19, N-(2-cyclohexyl-1,5-dimethyl-3-oxo-2,3-dihydro-1H-pyrazol-4-yl)-4-methyl-5-((2S,6S)-6-methyl-3,6-dihydro-2H-pyran-2-yl)isoxazole-3-carboxamide and N-(2-cyclohexyl-1,5-dimethyl-3-oxo-2,3-dihydro-1H-pyrazol-4-yl)-4-methyl-5-((2R,6R)-6-methyl-3,6-dihydro-2H-pyran-2-yl)isoxazole-3-carboxamide]
4 | 290 nM | CO[C@H]1C[C@@H](c2onc(C(=O)Nc3c(C)n(C)n(C4CCCCC4)c3=O)c2C)O[C@@H](C(C)(C)C)C1 (single isomer, unassigned) [Example 13a, 5-((2S,4R,6R)-6-(tert-butyl)-4-methoxytetrahydro-2H-pyran-2-yl)-N-(2-cyclohexyl-1,5-dimethyl-3-oxo-2,3-dihydro-1H-pyrazol-4-yl)-4-methylisoxazole-3-carboxamide or 5-((2R,4S,6S)-6-(tert-butyl)-4-methoxytetrahydro-2H-pyran-2-yl)-N-(2-cyclohexyl-1,5-dimethyl-3-oxo-2,3-dihydro-1H-pyrazol-4-yl)-4-methylisoxazole-3-carboxamide]
5 | 730 nM | CO[C@H]1C[C@@H](c2onc(C(=O)Nc3c(C)n(C)n(C4CCCCC4)c3=O)c2C)O[C@@H](C(C)(C)C)C1 (single isomer, unassigned) [Example 13b, 5-((2S,4R,6R)-6-(tert-butyl)-4-methoxytetrahydro-2H-pyran-2-yl)-N-(2-cyclohexyl-1,5-dimethyl-3-oxo-2,3-dihydro-1H-pyrazol-4-yl)-4-methylisoxazole-3-carboxamide or 5-((2R,4S,6S)-6-(tert-butyl)-4-methoxytetrahydro-2H-pyran-2-yl)-N-(2-cyclohexyl-1,5-dimethyl-3-oxo-2,3-dihydro-1H-pyrazol-4-yl)-4-methylisoxazole-3-carboxamide]
6 | 290 nM | Cc1c(C(=O)Nc2c(C)n(C)n(C3CCC3)c2=O)noc1[C@@H]1CCC[C@H](C(C)(C)C)O1 (single isomer, unassigned) [Example 15a, 5-((2S,6R)-6-(tert-Butyl)tetrahydro-2H-pyran-2-yl)-N-(2-cyclobutyl-1,5-dimethyl-3-oxo-2,3-dihydro-1H-pyrazol-4-yl)-4-methylisoxazole-3-carboxamide or 5-((2R,6S)-6-(tert-Butyl)tetrahydro-2H-pyran-2-yl)-N-(2-cyclobutyl-1,5-dimethyl-3-oxo-2,3-dihydro-1H-pyrazol-4-yl)-4-methylisoxazole-3-carboxamide]
7 | 630 nM | Cc1c(C(=O)Nc2c(C)n(C)n(C3CCC3)c2=O)noc1[C@H]1CCC[C@@H](C(C)(C)C)O1 (single isomer, unassigned) [Example 15b, 5-((2R,6S)-6-(tert-butyl)tetrahydro-2H-pyran-2-yl)-N-(2-cyclobutyl-1,5-dimethyl-3-oxo-2,3-dihydro-1H-pyrazol-4-yl)-4-methylisoxazole-3-carboxamide or 5-((2S,6R)-6-(tert-Butyl)tetrahydro-2H-pyran-2-yl)-N-(2-cyclobutyl-1,5-dimethyl-3-oxo-2,3-dihydro-1H-pyrazol-4-yl)-4-methylisoxazole-3-carboxamide]
8 | 37 nM | Cc1c(C(=O)Nc2c(C)n(C)n(C3CCCCC3)c2=O)noc1[C@@H]1CCC[C@H](C(C)(C)C)O1 (single isomer, unassigned) [Example 16, 5-((2S,6R)-6-(tert-butyl)tetrahydro-2H-pyran-2-yl)-N-(2-cyclohexyl-1,5-dimethyl-3-oxo-2,3-dihydro-1H-pyrazol-4-yl)-4-methylisoxazole-3-carboxamide or 5-((2R,6S)-6-(tert-butyl)tetrahydro-2H-pyran-2-yl)-N-(2-cyclohexyl-1,5-dimethyl-3-oxo-2,3-dihydro-1H-pyrazol-4-yl)-4-methylisoxazole-3-carboxamide]
9 | 2.8 nM | Cc1c(C(=O)Nc2c(C)n(C)n(C3CCCCC3)c2=O)noc1C1=CCC(C(C)C)CC1 (stereo not drawn) [Example 1, N-(2-Cyclohexyl-1,5-dimethyl-3-oxo-2,3-dihydro-1H-pyrazol-4-yl)-5-(4-isopropylcyclohex-1-en-1-yl)-4-methylisoxazole-3-carboxamide]
10 | 2.1 nM | CCC1CC(C)CC=C1c1onc(C(=O)Nc2c(C)n(C)n(C3CCCCC3)c2=O)c1C (stereo not drawn) [Example 1.1, N-(2-Cyclohexyl-1,5-dimethyl-3-oxo-2,3-dihydro-1H-pyrazol-4-yl)-5-(6-ethyl-4-methylcyclohex-1-en-1-yl)-4-methylisoxazole-3-carboxamide]
11 | 14 nM | Cc1c(C(=O)Nc2c(C)n(C)n(C3CCCCC3)c2=O)noc1C1=CCCCC1(C)C [Example 1.2, N-(2-Cyclohexyl-1,5-dimethyl-3-oxo-2,3-dihydro-1H-pyrazol-4-yl)-5-(6,6-dimethylcyclohex-1-en-1-yl)-4-methylisoxazole-3-carboxamide]
12 | 1.8 nM | CCC1CC=C(c2onc(C(=O)Nc3c(C)n(C)n(C4CCCCC4)c3=O)c2C)CC1 (stereo not drawn) [Example 1.3, N-(2-Cyclohexyl-1,5-dimethyl-3-oxo-2,3-dihydro-1H-pyrazol-4-yl)-5-(4-ethylcyclohex-1-en-1-yl)-4-methylisoxazole-3-carboxamide]
13 | 3.2 nM | Cc1c(C(=O)Nc2c(C)n(C)n(C3CCCCC3)c2=O)noc1C1=CCC(C(C)(C)C)CC1 (stereo not drawn) [Example 1.4, 5-(4-(tert-Butyl)cyclohex-1-en-1-yl)-N-(2-cyclohexyl-1,5-dimethyl-3-oxo-2,3-dihydro-1H-pyrazol-4-yl)-4-methylisoxazole-3-carboxamide]
14 | 8 nM | Cc1c(C(=O)Nc2c(C)n(C)n(C3CCCCC3)c2=O)noc1C1=CCCCCC1 [Example 1.6, 5-(Cyclohept-1-en-1-yl)-N-(2-cyclohexyl-1,5-dimethyl-3-oxo-2,3-dihydro-1H-pyrazol-4-yl)-4-methylisoxazole-3-carboxamide]
15 | 33 nM | Cc1c(C(=O)Nc2c(C)n(C)n(C3CCCCC3)c2=O)noc1C1=CCC(C(F)(F)F)CC1 (stereo not drawn) [Example 1.7, N-(2-Cyclohexyl-1,5-dimethyl-3-oxo-2,3-dihydro-1H-pyrazol-4-yl)-4-methyl-5-(4-(trifluoromethyl)cyclohex-1-en-1-yl)isoxazole-3-carboxamide]
16 | 2.5 nM | Cc1c(C(=O)Nc2c(C)n(C)n(C3CCCCC3)c2=O)noc1C1=CCC2(CCCC2)CC1 [Example 2, N-(2-Cyclohexyl-1,5-dimethyl-3-oxo-2,3-dihydro-1H-pyrazol-4-yl)-4-methyl-5-(spiro[4.5]dec-7-en-8-yl)isoxazole-3-carboxamide]
17 | 64 nM | Cc1c(C(=O)Nc2c(C)n(C)n(C3CCCCC3)c2=O)noc1C1=CCC2(CCCO2)CC1 (stereo not drawn) [Example 2.1, N-(2-Cyclohexyl-1,5-dimethyl-3-oxo-2,3-dihydro-1H-pyrazol-4-yl)-4-methyl-5-(1-oxaspiro[4.5]dec-7-en-8-yl)isoxazole-3-carboxamide]

Row | SMILES | IC50
18 | Cc1c(C(=O)Nc2c(C)n(C)n(C3CCCCC3)c2=O)noc1C1CC=CC(C(C)C)O1 (mixture of isomers) [Example 18] | 91 nM
